Data: ChEMBL document CHEMBL1149925, “Application of hygromycin a structure activity relationships to the antibiotic A201A” (1993)
Values after ≈ are worked out from the molar mass of the structure shown.

Columns and labels:
Pasteurella multocida = assay: Tested for antibacterial activity expressed as minimum inhibitory concentration against Pasteurella multocida; type: functional
[1] = system: Brachyspira hyodysenteriae; assay: Tested for antibacterial activity expressed as minimum inhibitory concentration against Serpulina (Treponema) hyodysenteriae; type: functional

| Structure (SMILES) | MIC (Pasteurella multocida) [µg/mL] | MIC [1] [µg/mL] |
| --- | --- | --- |
| CO/C(CO[C@H]1O[C@H](C)[C@@H](OC)[C@H](OC)[C@@H]1O)=C1\O[C@@H](Oc2ccc(/C=C(\C)C(=O)NC3C(O)[C@H](n4cnc5c(N(C)C)ncnc54)O[C@@H]3CO)cc2)[C@@H](O)[C@@H]1O (some centres not stated) | 3.13 (≈ 3.9 µM) | 3.13 (≈ 3.9 µM) |
| C=CCOc1ccc(/C=C(\C)C(=O)N[C@@H]2[C@H](O)[C@@H](O)[C@H]3OCO[C@H]3[C@@H]2O)cc1 | 50 (≈ 128 µM) | 6.25 (≈ 16 µM) |
| C=CCOc1ccc(/C=C(\C)C(=O)N[C@H]2C(O)[C@H](n3cnc4c(N(C)C)ncnc43)O[C@@H]2CO)cc1 (some centres not stated) | > 200 | 50 (≈ 101 µM) |
| C/C(=C\c1ccc(O[C@@H]2O[C@H]([C@H](C)O)[C@@H](O)[C@@H]2O)c(O)c1)C(=O)N[C@H]1C(O)[C@H](n2cnc3c(N(C)C)ncnc32)O[C@@H]1CO (some centres not stated) | 200 (≈ 324 µM) | 200 (≈ 324 µM) |
| COc1ccc(/C=C(\C)C(=O)N[C@@H]2[C@H](O)[C@@H](O)[C@H]3OCO[C@H]3[C@@H]2O)cc1 | > 200 | > 200 |
| C=CCOc1ccc(/C=C(\C)C(=O)N[C@H]2[C@@H](O)[C@H](OC)O[C@@H]2CO)cc1O | > 200 | > 200 |
| C/C(=C\c1ccc(O[C@@H]2O[C@H]([C@H](C)O)[C@@H](O)[C@@H]2O)c(O)c1)C(=O)N[C@@H]1[C@H](O)[C@@H](O)[C@H]2OCO[C@H]2[C@@H]1O | 6.25 (≈ 12.2 µM) | 3.13 (≈ 6.1 µM) |
| C=CCOc1ccc(/C=C(\C)C(=O)N[C@H]2C(O)[C@H](n3cnc4c(N(C)C)ncnc43)O[C@@H]2CO)cc1O (some centres not stated) | 6.25 (≈ 12.2 µM) | 1.56 (≈ 3.06 µM) |
| COc1ccc(/C=C(\C)C(=O)N[C@H]2C(O)[C@H](n3cnc4c(N(C)C)ncnc43)O[C@@H]2CO)cc1 (some centres not stated) | 200 (≈ 427 µM) | 50 (≈ 107 µM) |
| C=CCOc1ccc(/C=C(\C)C(=O)N[C@@H]2[C@H](O)[C@@H](O)[C@H]3OCO[C@H]3[C@@H]2O)cc1O | 3.13 (≈ 7.68 µM) | 0.78 (≈ 1.91 µM) |
| CC(=O)[C@H]1O[C@@H](Oc2ccc(/C=C(\C)C(=O)N[C@@H]3[C@H](O)[C@@H](O)[C@H]4OCO[C@H]4[C@@H]3O)cc2O)[C@@H](O)[C@@H]1O [HYGROMYCIN A] | 0.78 (≈ 1.52 µM) | 0.78 (≈ 1.52 µM) |
